Reference: the NIST ThermoML archive (doi:10.1016/j.jct.2007.07.005)

Experiment: xn = mol fraction of the nth substance listed
Conditions: Fluid (supercritical or subcritical phases), vibrating tube

CCCCCO [pentan-1-ol] + O=C=O
Conditions | mass density [kg/m3]
352.81 K, 18013 kPa, x2 = 0.0816 | 786.86
352.81 K, 18017 kPa, x2 = 0.9216 | 678.45
352.81 K, 18023 kPa, x2 = 0.7274 | 779.16
352.81 K, 18992 kPa, x2 = 0.0816 | 787.69
352.81 K, 19030 kPa, x2 = 0.9216 | 693.91
352.81 K, 19050 kPa, x2 = 0.7274 | 783.67
352.81 K, 19999 kPa, x2 = 0.7274 | 787.59
352.81 K, 20017 kPa, x2 = 0.9216 | 707.27
352.81 K, 20032 kPa, x2 = 0.0816 | 788.58
352.81 K, 20998 kPa, x2 = 0.0816 | 789.4
352.81 K, 21041 kPa, x2 = 0.9216 | 719.46
352.81 K, 21063 kPa, x2 = 0.7274 | 791.77
352.81 K, 22012 kPa, x2 = 0.0816 | 790.22
352.81 K, 22020 kPa, x2 = 0.7274 | 795.33
352.81 K, 22043 kPa, x2 = 0.9216 | 730.24
352.81 K, 23032 kPa, x2 = 0.9216 | 740.03
352.81 K, 23038 kPa, x2 = 0.7274 | 798.99
352.81 K, 23043 kPa, x2 = 0.0816 | 791.09
352.81 K, 23982 kPa, x2 = 0.7274 | 802.22
352.81 K, 24064 kPa, x2 = 0.0816 | 791.93
352.81 K, 25028 kPa, x2 = 0.0816 | 792.72
352.81 K, 25068 kPa, x2 = 0.7274 | 805.8
352.86 K, 7013 kPa, x2 = 0.1347 | 777.29
352.86 K, 8003 kPa, x2 = 0.1347 | 778.24
352.86 K, 9042 kPa, x2 = 0.1347 | 779.29
352.86 K, 9997 kPa, x2 = 0.1347 | 780.21
352.86 K, 11043 kPa, x2 = 0.1347 | 781.23
352.86 K, 12025 kPa, x2 = 0.1347 | 782.2
352.86 K, 13003 kPa, x2 = 0.1347 | 783.16
352.86 K, 14006 kPa, x2 = 0.1347 | 784.13
352.86 K, 15015 kPa, x2 = 0.1347 | 785.07
352.86 K, 16005 kPa, x2 = 0.1347 | 786.01
352.86 K, 17031 kPa, x2 = 0.1347 | 786.94
352.86 K, 18022 kPa, x2 = 0.1347 | 787.86
352.86 K, 19009 kPa, x2 = 0.1347 | 788.74
352.86 K, 20022 kPa, x2 = 0.1347 | 789.63
352.86 K, 21024 kPa, x2 = 0.1347 | 790.52
352.86 K, 21995 kPa, x2 = 0.1347 | 791.37
352.86 K, 23030 kPa, x2 = 0.1347 | 792.28
352.86 K, 24029 kPa, x2 = 0.1347 | 793.15
352.86 K, 25004 kPa, x2 = 0.1347 | 793.98
352.88 K, 14062 kPa, x2 = 0.6054 | 787.97
352.88 K, 15034 kPa, x2 = 0.6054 | 790.53
352.88 K, 16029 kPa, x2 = 0.6054 | 793.07
352.88 K, 17048 kPa, x2 = 0.6054 | 795.6
352.88 K, 18046 kPa, x2 = 0.6054 | 798.05
352.88 K, 19026 kPa, x2 = 0.6054 | 800.32
352.88 K, 20030 kPa, x2 = 0.6054 | 802.6
352.88 K, 21058 kPa, x2 = 0.6054 | 804.93
352.88 K, 22056 kPa, x2 = 0.6054 | 807.03
352.88 K, 23049 kPa, x2 = 0.6054 | 809.11
352.88 K, 24065 kPa, x2 = 0.6054 | 811.21
352.88 K, 25092 kPa, x2 = 0.6054 | 813.29
362.58 K, 20013 kPa, x2 = 0.9757 | 578.28
362.58 K, 21042 kPa, x2 = 0.9757 | 600.7
362.58 K, 22020 kPa, x2 = 0.9757 | 619.68
362.58 K, 23010 kPa, x2 = 0.9757 | 637.03
362.58 K, 24034 kPa, x2 = 0.9757 | 653.33
362.58 K, 25047 kPa, x2 = 0.9757 | 667.94
362.59 K, 517 kPa, x2 = 0 | 759.7
362.59 K, 1023 kPa, x2 = 0 | 760.25
362.59 K, 2005 kPa, x2 = 0 | 761.26
